Source: patent US20240425814A1, “SALTS OF DIPEPTIDES AND THEIR USES IN CELL CULTURE” (Evonik Operations GmbH, priority 2021, published 2024)
Structures can show the parent of a compound that is named as a salt. Where two headings read alike, the source gives them in different places. Positions of bridges follow the written chain, without caps; N, C: chain ends. Residues, ends and D or L forms follow the SMILES beside them. Chains are numbered I, II in the order given.

Assays:
[1] = Storage stability test of salt forms (HPLC); assay type: physicochemical
Procedure: Storage stability tests at 25° C. and at 60° C. were conducted with the different salt forms of the (Lys-Cys) 2. Stability was measured with a HPLC method.

[2] = tested on: human bone marrow stromal cells, mesenchymal stem cells (MSC); experiment: In vitro cytotoxicity / viability assay (MTS) on mesenchymal stem cells; assay type: cell-based; conditions: high concentration (tested at 1 and 10 mM), 24 h with dipeptide, samples adjusted to pH 7, vs control medium without (Lys-Cys)2
Procedure: (§1) • The assay was performed with human bone marrow stromal cells, mesenchymal stem cells (MSC) or Chinese hamster ovary cells (subclone K1), respectively. In a first step, the cells were seeded in a transparent 96-well cell culture plate and incubated for 24 h in a CO2-Incubator (37° C., 5% CO2, 95% humidity) at a cell density of 10.000 cells/well and in a final volume of 100 μl/well. After the resting time of 24 hours the supernatants were discarded, and prepared dipeptide test compounds were added to the cells in a final volume of 100 μl/well. The control was rested in medium without dipeptide.
(§2) All samples were dissolved directly in associated cell culture medium. pH values of the samples were adjusted to pH 7 in advance, to exclude an influence on the cell viability due to a potentially lower pH value.
(§3) Different salt forms of (Lys-Cys)2 were tested in two different concentrations and each sample was tested in triplicates. […]
(§4) As a result of the reduction of MTS into a formazan product by metabolically active cells, an absorbance signal of formazan could be measured at a wavelength of 490 nm in a multiplate reader. […]
(§5) CHO-K1 as well as MSC cells were cultured for 24 hours before the addition of different (Lys-Cys)2 salts. […] After 24-hour cultivation with the dipeptides, the cell viability was assessed using the CellTiter 96® AQueous Non-Radioactive Cell Proliferation Assay (MTS).

[3] = tested on: CHO-K1 cells; experiment: In vitro cytotoxicity / viability assay (MTS) on CHO-K1 cells; assay type: cell-based, Chinese hamster; conditions: high concentration (tested at 1 and 10 mM), 24 h with dipeptide, samples adjusted to pH 7, vs control medium without (Lys-Cys)2
Procedure: as §1, §2, §3, §4, §5

Row | SMILES | storage stability ([1]; storage at 25° C. and at 60° C., HPLC, compared with the chloride free, basic form) | cell viability [2] | cell viability [3] | storage stability [1]
1 | NCCCC[C@H](N)C(=O)N[C@@H](CSSC[C@H](NC(=O)[C@@H](N)CCCCN)C(=O)O)C(=O)O [2 HCl form, N,N′-di-L-lysyl-L-cystine dihydrochloride] (I: H-Lys-Cys-OH / II: H-Lys-Cys-OH; disulfide I:2-II:2) | significantly more stable | improved cell viability | improved cell viability | –
2 | Cl.Cl.Cl.Cl.NCCCC[C@H](N)C(=O)N[C@@H](CSSC[C@H](NC(=O)[C@@H](N)CCCCN)C(=O)O)C(=O)O [4 HCl form, N,N′-di-L-lysyl-L-cystine tetrahydrochloride] (I: H-Lys-Cys-OH / II: H-Lys-Cys-OH; disulfide I:2-II:2) | – | – | reduced cell viability | significantly more stable
